# Laboratory results taken from patent publication US7960395B2, “5,7-disubstituted thiazolo[4,5-d]pyrimidines for the selective inhibition of chemokine receptors” (AstraZeneca AB, priority 2006, dated 2011).
# Biological target: T1, hCX3CR1 (Homo sapiens, UniProt P49238)
# T1 construct: expressed in transfected cells; host or cells: human embryonic kidney suspension (HEKS) 293 cells stably expressing chimeric G-protein Gαqi5; membranes prepared from them
# T1 sequence (P49238 1-355): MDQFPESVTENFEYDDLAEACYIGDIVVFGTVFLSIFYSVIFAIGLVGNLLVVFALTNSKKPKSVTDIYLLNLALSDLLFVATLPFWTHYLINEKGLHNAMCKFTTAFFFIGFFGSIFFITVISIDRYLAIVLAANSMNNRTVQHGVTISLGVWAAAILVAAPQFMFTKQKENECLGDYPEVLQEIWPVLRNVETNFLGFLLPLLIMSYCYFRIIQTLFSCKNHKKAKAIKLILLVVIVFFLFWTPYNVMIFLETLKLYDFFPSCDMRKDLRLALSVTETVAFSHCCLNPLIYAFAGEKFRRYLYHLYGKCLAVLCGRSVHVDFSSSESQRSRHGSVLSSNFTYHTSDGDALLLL
# Assay: in vitro hCX3CR1 binding assay ([125I]-fractalkine competition binding, membranes)
# Conditions: final compounds
# From the text: Recombinant human fractalkine (hCX3CL1) and recombinant human interleukin-8 (IL-8 or hCXCL8) were purchased from PeproTech Inc., UK. Recombinant [^125I]-fractalkine (human) and [^125I]hIL-8 with the specific activity of 2200 Ci/mmol, was purchased from NEN® Life Science Products, Inc., UK. Fluo-4-AM was purchased from Molecular Probes, US. All other chemicals were of analytical grade.
# The complete human CX3CR1 cDNA (GenBank accession number U20350) was extracted from human brain mRNA (Superscript, Life Technologies) and ligated into pCR-Blunt II TOPO vector (InVitrogen). The insert corresponding hCX3CR1 was isolated and further subcloned into pcDNA3.1zeo. Plasmid DNA was prepared using Plasmid Midi Kit (Qiagen). Using Superfect Transfection Reagent (Qiagen) according to the manufacturer's protocol the expression plasmid for hCX3CR1 was then introduced into human embryonic kidney suspension (HEKS) 293 cell line containing a vector for stable expression of a chimeric G-protein Gαqi5. A stable clone was generated utilizing zeocin (500 μg/mL) and hygromycin (100 μg/mL) selection. For further applications the cells were maintained in Dulbecco's modified Eagle's medium/Ham's nutrient mix F12 (DMEM/F12) containing pyridoxine and supplemented with 10% (v/v) fetal bovine serum, 2 mM L-glutamine, 100 U/ml penicillin and […] streptomycin, 250 μg/mL zeocin and 100 μg/mL hygromycin.
# Cells are grown at 37° C. and 5% CO2 and harvested at 60-80% confluence in buffer containing 10 mM Tris-HCl pH 7.4, 5 mM EDTA, 0.1 mg/mL bacitracin. The cells are centrifuged at 300×g for 10 min and the pellet is resuspended in harvesting buffer (10 mM Tris-HCl, pH 7.4, 5 mM ethylenediaminetetra-aceticacid (EDTA) and 0.1 mg/mL bacitracin), pooled and homogenised using a Dounce homogeniser. The homogenate is centrifuged in 48000×g for 10 min and resuspended in harvesting buffer using Ultra-Turrax T8. Membrane aliquots are stored at −80° C. Protein concentration was determined in microtiter plates as described by Harrington (1990, Anal. Biochem. 186, 285-287).
# Competition binding studies of [^125I]fraktalkine were performed in 2 mL 96-deep-well plates (Beckman, Germany) in a total volume of 1000 μL/well. Each well contained […] [^125I]-fractalkine and membrane equivalent to receptor concentration of 1 μM in assay buffer (50 mM Hepes-KOH, pH 7.4, 10 mM MgCl2, 1 mM EDTA, 0.1% (w/v) gelatine). Ten concentrations (2 points/log unit) of the test compounds were pre-dissolved in DMSO and added to reach a final concentration of 1% (v/v) DMSO. The assay was initiated with the addition of membranes and incubated at 25° C. for 24 h. The reactions were stopped by rapid filtration through Whatman GF/B glass fiber filters pretreated with 0.3% polyethylimine and subsequent washing with ice-cold buffer (10 mM Hepes-KOH pH 7.4, 500 mM NaCl) using a Brandel receptor binding harvester. Scintillation cocktail was added and radioactivity was determined in a Packard 2500TR liquid scintillation counter. (Perkin Elmer, USA)
row,Compound,Ki [µM]
1,"CC(C)C[C@H](CO)Nc1nc(S[C@@H](C)c2ncccc2F)nc2[nH]c(=O)sc12 [Example 4, 5-{[(1S)-1-(3-Fluoropyridin-2-yl)ethyl]thio}-7-{[(1R)-1-(hydroxymethyl)-3-methylbutyl]amino}[1,3]thiazolo[4,5-d]pyrimidin-2(3H)-one]",0.018
2,"CC(C)C[C@H](CO)Nc1nc(S[C@@H](C)c2ccc(Cl)cn2)nc2[nH]c(=O)sc12 [Example 1, 5-{[(1S)-1-(5-Chloropyridin-2-yl)ethyl]thio}-7-{[(1R)-1-(hydroxymethyl)-3-methylbutyl]amino}[1,3]thiazolo[4,5-d]pyrimidin-2(3H)-one]",0.0058
3,"CC(C)C[C@H](CO)Nc1nc(S[C@@H](C)c2ccc(F)cn2)nc2[nH]c(=O)sc12 [Example 2, 5-{[(1S)-1-(5-Fluoropyridin-2-yl)ethyl]thio}-7-{[(1R)-1-(hydroxymethyl)-3-methylbutyl]amino}[1,3]thiazolo[4,5-d]pyrimidin-2(3H)-one]",0.02
4,"CCC[C@H](CO)Nc1nc(S[C@@H](C)c2ccc(Cl)nc2)nc2[nH]c(=O)sc12 [Example 6, 5-{[(1S)-1-(6-Chloropyridin-3-yl)ethyl]thio}-7-{[(1R)-1-(hydroxymethyl)butyl]amino}[1,3]thiazolo[4,5-d]pyrimidin-2(3H)-one]",0.0214
5,"CCC[C@H](CO)N(C)c1nc(S[C@@H](C)c2ccc(Cl)nc2)nc2[nH]c(=O)sc12 [Example 7, 5-{[(1S)-1-(6-Chloropyridin-3-yl)ethyl]thio}-7-[[(1R)-1-(hydroxymethyl)butyl](methyl)amino][1,3]thiazolo[4,5-d]pyrimidin-2(3H)-one]",0.44

# Now from value to compound:
row,Ki [µM],Compound
1,0.097,"CC(C)C[C@H](CO)Nc1nc(S[C@H](C)c2ccncc2F)nc2[nH]c(=O)sc12 [Example 8a, 5-{[(1R)-1-(3-Fluoropyridin-4-yl)ethyl]thio}-7-{[(1R)-1-(hydroxymethyl)-3-methylbutyl]amino}[1,3]thiazolo[4,5-d]pyrimidin-2(3H)-one]"
2,0.0015,"CC(C)C[C@H](CO)Nc1nc(S[C@@H](C)c2ccncc2F)nc2[nH]c(=O)sc12 [Example 8b, 5-{[(1S)-1-(3-Fluoropyridin-4-yl)ethyl]thio}-7-{[(1R)-1-(hydroxymethyl)-3-methylbutyl]amino}[1,3]thiazolo[4,5-d]pyrimidin-2(3H)-one]"
